Key:
[1] = tested on: SW620 colorectal cancer cells; test: Serum-free cell survival of SW620 cells (Hoescht staining); assay type: cell-based; details: Homo sapiens, SW-620, cysteine-reactive fragment 50 μM, 48 h, vs DMSO, average of n = 3/group, read-out: SW620 survival Ave
Procedure: (§1) Cell Culture. SW620 cells were purchased from ATCC. SW620 cells were grown in L-15 media with 10% fetal bovine serum (FBS) in ambient CO2. U2OS cells were grown in DMEM media supplemented with 10% FBS at 37° C. with 5% CO2.
(§2) Survival and Proliferation Assays. Cells were plated the evening before the experiment, and allowed to adhere overnight. For serum-free cell survival assays, cells were plated in media not containing FBS. For cell proliferation assays, cells were plated in regular media. For the chemical genetics screen, cells were treated with either DMSO or the cysteine-reactive fragment for 48 h and cell viability was assessed by Hoescht stain using our previously described methods

[2] = tested on: SW620 colorectal cancer cells; test: Cell proliferation of SW620 cells (Hoescht staining); assay type: cell-based; details: Homo sapiens, SW-620, cysteine-reactive fragment 50 μM, 48 h, vs DMSO, average of n = 3/group, read-out: SW620 proliferation Ave
Procedure: as §1, §2

Structure (SMILES) | viability at 50 µM [1] [%] | activity at 50 µM [2] [%]
C=CC(=O)NCc1ccc(Br)cc1 [DKM 2-43, N-(4-bromobenzyl)acrylamide] | 84 | 128
C=CC(=O)NC1CCCC1 [DKM 2-108, N-cyclopentylacrylamide] | 61 | 95
CCOC(=O)N1CCN(C(=O)CCl)CC1 [DKM 2-52, Ethyl 4-(2-chloroacetyl)piperazine-1-carboxylate] | 92 | 53
O=C(CCl)Nc1cccc2c1CCC2 [DKM 2-91, 2-chloro-N-(2,3-dihydro-1H-inden-4-yl)acetamide] | 38 | 59
C=CC(=O)NCc1ccc(OC)cc1 [DKM 2-33, N-(4-methoxybenzyl)acrylamide] | 92 | 115
C=CC(=O)N1CCN(c2ccc(OC)cc2)CC1 [DKM 3-36, 1-(4-(4-methoxyphenyl)piperazin-1-yl)prop-2-en-1-one] | 54 | 97
C=CC(=O)Nc1ccc(OC)cc1 [TRH 1-32, N-(4-methoxyphenyl)acrylamide] | 55 | 100
C=CC(=O)N1CCC(C)CC1 [DKM 3-8, 1-(4-methylpiperidin-1-yl)prop-2-en-1-one] | 152 | 105
C=CC(=O)NCc1ccc(-c2ccccc2)cc1 [DKM 2-37, N-([1,1′-biphenyl]-4-ylmethyl)acrylamide] | 57 | 73
CCCCCCCCCCNC(=O)CCl [DKM 2-72, 2-Chloro-N-decylacetamide] | 96 | 100
C=CC(=O)NCc1ccc(OC)c(OC)c1 [DKM 2-110, N-(3,4-dimethoxybenzyl)acrylamide] | 112 | 95
O=C(CCl)N1CCCC1 [DKM 2-71, 2-Chloro-1-(pyrrolidin-1-yl)ethan-1-one] | 81 | 41
COc1ccc(CNC(=O)CCl)cc1 [DKM 2-83, 2-chloro-N-(4-methoxybenzyl)acetamide] | 66 | 48
C=CC(=O)N1CCN(C(=O)OC(C)(C)C)CC1 [DKM 2-111, tert-butyl 4-acryloylpiperazine-1-carboxylate] | 133 | 106
C=CC(=O)NC(C)CC (stereo not shown) [DKM 3-32, N-(sec-butyl)acrylamide] | 70 | 95
C=CC(=O)NCCOc1ccccc1OC [DKM 2-58, N-(2-(2-methoxyphenoxy)ethyl)acrylamide] | 98 | 116
C=CC(=O)NCc1cc(C)cc(C)c1 [DKM 2-47, N-(3,5-dimethylbenzyl)acrylamide] | 78 | 112
Cc1ccccc1CNC(=O)CCl [TRH 1-55, 2-Chloro-N-(2-methylbenzyl)acetamide] | 47 | 53
C=CC(=O)NCc1ccccc1Cl [DKM 2-60, N-(2-chlorobenzyl)acrylamide] | 108 | 100
C=CC(=O)NCCCSC [DKM 3-12, N-(3-(methylthio)propyl)acrylamide] | 129 | 106
C=CC(=O)NCC(OCC)OCC [DKM 3-9, N-(2,2-diethoxyethyl)acrylamide] | 75 | 100
C=CC(=O)N1CCc2ccccc21 [DKM 2-101, 1-(indolin-1-yl)prop-2-en-1-one] | 39 | 96

Structure (SMILES) | viability at 50 µM [1] [%] | activity at 50 µM [2] [%]
O=C(CCl)NCc1ccc(F)cc1 [DKM 2-80, 2-chloro-N-(4-fluorobenzyl)acetamide] | 47 | 48
C=CC(=O)Nc1ccccc1 [TRH 1-19, N-Phenylacrylamide] | 101 | 119
C=CC(=O)NC(C)c1ccccc1 (stereo not shown) [TRH 1-20, N-(1-phenylethyl)acrylamide] | 114 | 121
C=CC(=O)NCCN1CCOCC1 [DKM 2-100, N-(2-morpholinoethyl)acrylamide] | 138 | 100
C=CC(=O)Nc1ccc(C(C)=O)cc1 [DKM 3-7, N-(4-acetylphenyl)acrylamide] | 51 | 100
C=CC(=O)N1CCC(C#N)CC1 [DKM 3-11, 1-acryloylpiperidine-4-carbonitrile] | 120 | 118
C=CC(=O)N1CCC(C(=O)OCC)CC1 [DKM 2-120, Ethyl 1-acryloylpiperidine-4-carboxylate] | 102 | 96
COc1ccc(CNC(=O)CCl)cc1OC [DKM 2-93, 2-chloro-N-(3,4-dimethoxybenzyl)acetamide] | 74 | 57
C=CC(=O)N(c1ccccc1)c1ccccc1 [DKM 3-70, N,N-diphenylacrylamide] | 57 | 53
C=CC(=O)Nc1ccc2c(c1)OCO2 [DKM 2-86, N-(benzo[d][1,3]dioxol-5-yl)acrylamide] | 109 | 102
C=CC(=O)NCc1ccc(OC)cc1OC [TRH 1-13, N-(2,4-dimethoxybenzyl)acrylamide] | 94 | 128
C=CC(=O)NCc1ccc(F)cc1 [DKM 2-34, N-(4-fluorobenzyl)acrylamide] | 78 | 105
C=CC(=O)Nc1ccc(F)cc1 [DKM 3-31, N-(4-fluorophenyl)acrylamide] | 65 | 99
C=CC(=O)N1CCN(C(=O)OCC)CC1 [DKM 2-39, Ethyl 4-acryloylpiperazine-1-carboxylate] | 93 | 110
C=CC(=O)Nc1cccc2c1CCC2 [DKM 2-84, N-(2,3-dihydro-1H-inden-4-yl)acrylamide] | 74 | 84
C=CC(=O)N1CCN(c2ccc(C(C)=O)cc2)CC1 [DKM 3-29, 1-(4-(4-acetylphenyl)piperazin-1-yl)prop-2-en-1-one] | 79 | 121
C=CC(=O)N1CCC(OC)CC1 [DKM 2-109, 1-(4-methoxypiperidin-1-yl)prop-2-en-1-one] | 140 | 96
C=CC(=O)N(C)Cc1ccccc1 [DKM 2-95, N-benzyl-N-methylacrylamide] | 52 | 85
C=CC(=O)N1CCCCC1CC (stereo not shown) [TRH 1-27, 1-(2-ethylpiperidin-1-yl)prop-2-en-1-one] | 144 | 125
C=CC(=O)N1CCN(c2ccccc2)CC1 [DKM 3-5, 1-(4-phenylpiperazin-1-yl)prop-2-en-1-one] | 59 | 82
O=C(CCl)NCc1ccccc1 [DKM 2-67, N-benzyl-2-chloroacetamide] | 87 | 73
C=CC(=O)NCCCc1ccccc1 [DKM 2-50, N-(3-phenylpropyl)acrylamide] | 89 | 130
